Reference: ChEMBL document CHEMBL1201862, “PubChem BioAssay data set” (2004)
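96-well plates; 48 h exposure; 5 concentrations. Endpoints by linear interpolation between flanking doses. Not reached: highest tested concentration assigned. At the GI50, growth is halved.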 Active and inactive are the calls of the source. No stated cut-off is given here; in the data, active = GI50 up to about 1.1 µM and inactive = higher.

Tests used:
Experiment in all cases: growth of human tumour cells (NCI), 48 h
CAKI-1 = tested on: CAKI-1
CCRF-CEM = tested on: CCRF-CEM
EKVX = tested on: EKVX
HCT-116 = tested on: HCT-116
HL-60 = tested on: HL-60
K562 = tested on: K562
M14 = tested on: M14
Malme-3M = tested on: Malme-3M
NCI-H226 = tested on: NCI-H226
OVCAR-4 = tested on: OVCAR-4
SF-539 = tested on: SF-539
SK-MEL-2 = tested on: SK-MEL-2
SN12C = tested on: SN12C
SNB-19 = tested on: SNB-19
SW-620 = tested on: SW-620
U-251 = tested on: U-251
UO-31 = tested on: UO-31
SK-OV-3 = tested on: SK-OV-3
HOP-92 = tested on: HOP-92

Row | Compound | GI50 (CAKI-1) | GI50 (CCRF-CEM) | GI50 (EKVX) | GI50 (HCT-116) | GI50 (HL-60) | GI50 (K562) | GI50 (M14) | GI50 (Malme-3M) | GI50 (NCI-H226) | GI50 (OVCAR-4) | GI50 (SF-539) | GI50 (SK-MEL-2) | GI50 (SN12C) | GI50 (SNB-19) | GI50 (SW-620) | GI50 (U-251) | GI50 (UO-31) | GI50 (SK-OV-3) | GI50 (HOP-92)
1 | O=[N+]([O-])c1ccc2nc(/C(=N/Nc3ccccc3)C(O)c3ccco3)c(O)nc2c1 (stereo not given) | 85.5 µM (inactive) | 27.2 µM (inactive) | 39 µM (inactive) | > 100 µM (inactive) | 19.9 µM (inactive) | > 100 µM (inactive) | > 100 µM (inactive) | > 100 µM (inactive) | 15.7 µM (inactive) | > 100 µM (inactive) | 50.2 µM (inactive) | > 100 µM (inactive) | > 100 µM (inactive) | > 100 µM (inactive) | > 100 µM (inactive) | > 100 µM (inactive) | 86.5 µM (inactive) | – | –
2 | N#Cc1cc(NC(=O)c2ccccc2)c(=O)n2c1[nH]c1ccccc12 | 35.9 µM (inactive) | 37.8 µM (inactive) | 36.3 µM (inactive) | 21.4 µM (inactive) | 26.4 µM (inactive) | 31.7 µM (inactive) | 27.3 µM (inactive) | 23.9 µM (inactive) | – | 27 µM (inactive) | 21.5 µM (inactive) | 32.1 µM (inactive) | 29.1 µM (inactive) | 23.4 µM (inactive) | 39 µM (inactive) | 26.9 µM (inactive) | 18.3 µM (inactive) | 28.8 µM (inactive) | –
3 | Cc1nc(-n2nc(-c3ccccc3)cc2-c2ccccc2)sc1C(=O)CC(=O)C(=O)Nc1ccc(O)cc1 | > 100 µM (inactive) | > 100 µM (inactive) | > 100 µM (inactive) | > 100 µM (inactive) | > 100 µM (inactive) | > 100 µM (inactive) | > 100 µM (inactive) | > 100 µM (inactive) | > 100 µM (inactive) | > 100 µM (inactive) | > 100 µM (inactive) | > 100 µM (inactive) | > 100 µM (inactive) | > 100 µM (inactive) | > 100 µM (inactive) | > 100 µM (inactive) | > 100 µM (inactive) | > 100 µM (inactive) | –
4 | O=C(O)c1cc(=O)c2[nH]c3ccccc3c2s1 | > 100 µM (inactive) | > 100 µM (inactive) | > 100 µM (inactive) | – | > 100 µM (inactive) | > 100 µM (inactive) | > 100 µM (inactive) | > 100 µM (inactive) | – | > 100 µM (inactive) | – | > 100 µM (inactive) | > 100 µM (inactive) | > 100 µM (inactive) | > 100 µM (inactive) | – | > 100 µM (inactive) | > 100 µM (inactive) | > 100 µM (inactive)
5 | Cc1ccc(S(=O)(=O)Nc2ccccc2C(C)(C)C)cc1 | 18.7 µM (inactive) | 21.4 µM (inactive) | 33.2 µM (inactive) | 15.2 µM (inactive) | 16.8 µM (inactive) | 18 µM (inactive) | > 10 µM (inactive) | 30.6 µM (inactive) | 22.1 µM (inactive) | 25.6 µM (inactive) | 17.3 µM (inactive) | 26.7 µM (inactive) | – | – | 32.3 µM (inactive) | 20.6 µM (inactive) | 18.6 µM (inactive) | 30.5 µM (inactive) | –
6 | CC1(C)CC(=O)C=C(NC(=O)c2ccccc2)C1 | > 100 µM (inactive) | > 100 µM (inactive) | > 100 µM (inactive) | > 100 µM (inactive) | > 100 µM (inactive) | > 100 µM (inactive) | > 100 µM (inactive) | > 100 µM (inactive) | – | > 100 µM (inactive) | > 100 µM (inactive) | > 100 µM (inactive) | > 100 µM (inactive) | > 100 µM (inactive) | > 100 µM (inactive) | > 100 µM (inactive) | > 100 µM (inactive) | > 100 µM (inactive) | > 100 µM (inactive)
7 | COc1ccc(C[C@H](N)C(=O)NC2C(CO)OC(n3cnc4c(N(C)C)ncnc43)C2O)cc1 (stereo not given in full) | – | 0.145 µM (active) | 0.202 µM (active) | 0.115 µM (active) | 0.141 µM (active) | 0.133 µM (active) | 0.378 µM (active) | 0.524 µM (active) | 0.174 µM (active) | 0.389 µM (active) | – | 0.415 µM (active) | 0.178 µM (active) | – | 0.143 µM (active) | 0.0297 µM (active) | 2.68 µM (inactive) | 0.395 µM (active) | 0.196 µM (active)
8 | CCOCc1cc(=O)c2c(OC)cc3c(c2o1)CCC(C)(C)O3 | – | > 100 µM (inactive) | > 100 µM (inactive) | > 100 µM (inactive) | > 100 µM (inactive) | > 100 µM (inactive) | > 100 µM (inactive) | > 100 µM (inactive) | – | > 100 µM (inactive) | > 100 µM (inactive) | > 100 µM (inactive) | > 100 µM (inactive) | – | > 100 µM (inactive) | > 100 µM (inactive) | > 100 µM (inactive) | > 100 µM (inactive) | 33.4 µM (inactive)
9 | Oc1ccc([Te]CCNCC[Te]c2ccc(O)cc2)cc1 | 30.5 µM (inactive) | 2.97 µM (inactive) | 3.56 µM (inactive) | 5.96 µM (inactive) | 5.55 µM (inactive) | 10 µM (inactive) | 17.6 µM (inactive) | 22.6 µM (inactive) | 21.3 µM (inactive) | – | > 10 µM (inactive) | – | 9.82 µM (inactive) | 40.9 µM (inactive) | 23.1 µM (inactive) | 6.22 µM (inactive) | 9.2 µM (inactive) | 25 µM (inactive) | –
10 | CC1=Nc2ccccc2C1C(Cc1ccccc1N)c1c(C)[nH]c2ccccc12 (stereo not given) | – | 17.7 µM (inactive) | 20.5 µM (inactive) | 16.9 µM (inactive) | 14 µM (inactive) | 19.5 µM (inactive) | 15 µM (inactive) | 17.3 µM (inactive) | 15 µM (inactive) | – | 17.6 µM (inactive) | 5.92 µM (inactive) | 18.7 µM (inactive) | 22.7 µM (inactive) | 15.5 µM (inactive) | 16.8 µM (inactive) | 14.7 µM (inactive) | 24.6 µM (inactive) | 12.3 µM (inactive)
11 | COc1cc2ccnc3c2c(c1OC)-c1coc(SC)c1-3 | 20.8 µM (inactive) | > 10 µM (inactive) | – | 52.8 µM (inactive) | 9.18 µM (inactive) | > 100 µM (inactive) | > 100 µM (inactive) | > 100 µM (inactive) | – | 48.6 µM (inactive) | 56.5 µM (inactive) | > 100 µM (inactive) | > 100 µM (inactive) | > 100 µM (inactive) | > 100 µM (inactive) | 67.1 µM (inactive) | 26.4 µM (inactive) | > 100 µM (inactive) | 29 µM (inactive)
12 | Clc1ccc2nc(-c3ccccc3)nc(Cl)c2c1 | 21.1 µM (inactive) | 38.6 µM (inactive) | 29.2 µM (inactive) | 73.6 µM (inactive) | 12.5 µM (inactive) | > 100 µM (inactive) | – | 24.2 µM (inactive) | 34 µM (inactive) | – | 46.6 µM (inactive) | 45.6 µM (inactive) | > 100 µM (inactive) | 69.2 µM (inactive) | > 100 µM (inactive) | 68.1 µM (inactive) | > 100 µM (inactive) | 12.3 µM (inactive) | 25.4 µM (inactive)
13 | COc1ccc2nccc(C3=CCC4CCN(C(=O)c5ccccc5)C3C4)c2c1 (stereo not given) | > 100 µM (inactive) | 99.8 µM (inactive) | > 100 µM (inactive) | > 100 µM (inactive) | 51.6 µM (inactive) | 74.5 µM (inactive) | > 100 µM (inactive) | > 100 µM (inactive) | – | 81.8 µM (inactive) | > 100 µM (inactive) | > 100 µM (inactive) | > 100 µM (inactive) | > 100 µM (inactive) | > 100 µM (inactive) | > 100 µM (inactive) | 40.7 µM (inactive) | > 100 µM (inactive) | > 100 µM (inactive)
14 | CC(=O)O/N=C(/C)c1ccccc1O | > 100 µM (inactive) | > 100 µM (inactive) | > 100 µM (inactive) | > 100 µM (inactive) | > 100 µM (inactive) | > 100 µM (inactive) | > 100 µM (inactive) | > 100 µM (inactive) | > 100 µM (inactive) | > 100 µM (inactive) | > 100 µM (inactive) | > 100 µM (inactive) | > 100 µM (inactive) | > 100 µM (inactive) | > 100 µM (inactive) | > 100 µM (inactive) | > 100 µM (inactive) | > 100 µM (inactive) | –
15 | COc1ccc2[nH]c3c(c2c1)CCN(C)CC3 | > 100 µM (inactive) | > 100 µM (inactive) | > 100 µM (inactive) | > 100 µM (inactive) | 71.8 µM (inactive) | > 100 µM (inactive) | > 100 µM (inactive) | > 100 µM (inactive) | – | 45.3 µM (inactive) | > 100 µM (inactive) | > 100 µM (inactive) | – | > 100 µM (inactive) | > 100 µM (inactive) | > 100 µM (inactive) | – | > 100 µM (inactive) | > 100 µM (inactive)
16 | Cc1ccc(-n2c3nc(=O)n(C)c(=O)c-3nc3ccccc32)cc1 | 21.9 µM (inactive) | 17.3 µM (inactive) | 12.9 µM (inactive) | 19.1 µM (inactive) | 11.1 µM (inactive) | 17 µM (inactive) | 12.8 µM (inactive) | 13.8 µM (inactive) | 17.3 µM (inactive) | 14.5 µM (inactive) | 27.8 µM (inactive) | 14.6 µM (inactive) | 11.5 µM (inactive) | 12.9 µM (inactive) | 5.75 µM (inactive) | 15.1 µM (inactive) | 40.2 µM (inactive) | 95.7 µM (inactive) | –
